Common to all, as to type: in vivo
The test system of one test is Rorippa indica. Briefly: weeding effect in post-emergence stage. The gist of the method: (§1)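 Weeds grown in soil-filled pots in a greenhouse, sprayed at the 2-3 leaf stage (2 weeks after sowing) with compound in acetone/Tween 80 plus methyl oleate EC (1.5 L/ha) at 500 to 7.5 g a.i./ha. Fresh-weight growth control assessed 3 weeks later, triplicate means, scored on a 0-5 scale.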

For the next test, the system named is Conyza japonica. The experiment in a line: weeding effect in post-emergence stage. The essentials:
as §1

Another test has as its system Alopecurus japonicus. The experiment in a line: weeding effect in post-emergence stage. The gist of the method: as §1
A further test deals with Beckmannia syzigachne. Briefly: weeding effect in post-emergence stage. The gist of the method: as §1
The test system of test [1] is Echinochloa crusgalli, Scirpus juncoides and Bidens tripartita L. collected from Heilongjiang Province of China. The experiment in a line: resistance tests of the collected rice field weeds. To be noted: seeds collected from Heilongjiang Province of China. From the text: Note: The seeds of Echinochloa crusgalli, Scirpus juncoides and Bidens tripartita L. were collected from Heilongjiang Province of China.

Consider eleven molecules from patent US12509452B2, “Substituted-isoxazoline-containing aromatic compound, preparation method therefor, herbicidal composition and use thereof” (QINGDAO KINGAGROOT CHEMICAL COMPOUND CO., LTD., priority 2019, dated 2025).

`CCOC(=O)CCC1(C)CC(c2cc(-n3c(=O)n(C)c(=S)n(C)c3=O)c(F)cc2Cl)=NO1` (stereo not drawn) [Compound 1-94]: in the test on Rorippa indica (dose 15 g a.i./ha), the “weeding effect in post-emergence stage, Rorippa indica (activity level)” value (from here on “weeding effect … Rorippa indica (activity level)”) is recorded as 5 (Level 5: growth control rate is above 85%). In the test with Conyza japonica (dose 15 g a.i./ha), the “weeding effect in post-emergence stage, Conyza japonica (activity level)” value is 5 (Level 5: growth control rate is above 85%). In addition, the “weeding effect in post-emergence stage, Alopecurus japonicus (activity level)” value with Alopecurus japonicus (dose 15 g a.i./ha) was 5 (Level 5: growth control rate is above 85%). Further, in the test on Beckmannia syzigachne (dose 15 g a.i./ha), the “weeding effect in post-emergence stage, Beckmannia syzigachne (activity level)” value is on record as 5 (Level 5: growth control rate is above 85%).

Take `CCOC(=O)CCCC1(C)CC(c2cc(-n3c(=O)n(C)c(=S)n(C)c3=O)c(F)cc2Cl)=NO1` (stereo not drawn) [Compound 1-96]: the “weeding effect … Rorippa indica (activity level)” value in the test on Rorippa indica (dose 15 g a.i./ha) is listed as 5 (Level 5: growth control rate is above 85%). The “weeding effect in post-emergence stage, Conyza japonica (activity level)” value with Conyza japonica (dose 15 g a.i./ha) was 5 (Level 5: growth control rate is above 85%). Further, the “weeding effect in post-emergence stage, Alopecurus japonicus (activity level)” value with Alopecurus japonicus (dose 15 g a.i./ha) was 5 (Level 5: growth control rate is above 85%). Moreover, in the test on Beckmannia syzigachne (dose 15 g a.i./ha), the “weeding effect in post-emergence stage, Beckmannia syzigachne (activity level)” value is 5 (Level 5: growth control rate is above 85%).

As to `CCOC(=O)C1ON=C(c2cc(-n3c(=O)n(C)c(=S)n(C)c3=O)c(F)cc2Cl)C1C` (stereo not drawn) [Compound 1-98], the “weeding effect … Rorippa indica (activity level)” value with Rorippa indica (dose 15 g a.i./ha) is reported as 5 (Level 5: growth control rate is above 85%). Also, the “weeding effect in post-emergence stage, Conyza japonica (activity level)” value with Conyza japonica (dose 15 g a.i./ha) is listed as 5 (Level 5: growth control rate is above 85%). Moreover, the “weeding effect in post-emergence stage, Alopecurus japonicus (activity level)” value in the test with Alopecurus japonicus (dose 15 g a.i./ha) is 5 (Level 5: growth control rate is above 85%). Moreover, in the test on Beckmannia syzigachne (dose 15 g a.i./ha), the “weeding effect in post-emergence stage, Beckmannia syzigachne (activity level)” value is 5 (Level 5: growth control rate is above 85%).

For `CCOC(=O)C1ON=C(c2cc(-n3c(=O)n(C)c(=S)n(C)c3=O)c(F)cc2Cl)C1C(F)(F)F` (stereo not drawn) [Compound 1-99], the “weeding effect … Rorippa indica (activity level)” value with Rorippa indica (dose 15 g a.i./ha) was 5 (Level 5: growth control rate is above 85%). In addition, the “weeding effect in post-emergence stage, Conyza japonica (activity level)” value in the test on Conyza japonica (dose 15 g a.i./ha) is on record as 5 (Level 5: growth control rate is above 85%). The “weeding effect in post-emergence stage, Alopecurus japonicus (activity level)” value with Alopecurus japonicus (dose 15 g a.i./ha) was 5 (Level 5: growth control rate is above 85%). Besides, in the test on Beckmannia syzigachne (dose 15 g a.i./ha), the “weeding effect in post-emergence stage, Beckmannia syzigachne (activity level)” value was 5 (Level 5: growth control rate is above 85%).

Turning to `CCOC(=O)C1ON=C(c2cc(-n3c(=O)n(C)c(=S)n(C)c3=O)c(F)cc2Cl)C1C(=O)OCC` (stereo not drawn) [Compound 1-100], the “weeding effect … Rorippa indica (activity level)” value with Rorippa indica (dose 15 g a.i./ha) was 5 (Level 5: growth control rate is above 85%). In the test with Conyza japonica (dose 15 g a.i./ha), the “weeding effect in post-emergence stage, Conyza japonica (activity level)” value is listed as 5 (Level 5: growth control rate is above 85%). Also, the “weeding effect in post-emergence stage, Alopecurus japonicus (activity level)” value in the test with Alopecurus japonicus (dose 15 g a.i./ha) is 5 (Level 5: growth control rate is above 85%). The “weeding effect in post-emergence stage, Beckmannia syzigachne (activity level)” value in the test with Beckmannia syzigachne (dose 15 g a.i./ha) is reported as 5 (Level 5: growth control rate is above 85%).

In the case of `CCOC(=O)C1(C)ON=C(c2cc(-n3c(=O)n(C)c(=S)n(C)c3=O)c(F)cc2Cl)C1C` (stereo not drawn) [Compound 1-101], in the test on Rorippa indica (dose 15 g a.i./ha), the “weeding effect … Rorippa indica (activity level)” value is given as 5 (Level 5: growth control rate is above 85%). In addition, the “weeding effect in post-emergence stage, Conyza japonica (activity level)” value in the test with Conyza japonica (dose 15 g a.i./ha) is listed as 5 (Level 5: growth control rate is above 85%). Also, the “weeding effect in post-emergence stage, Alopecurus japonicus (activity level)” value in the test on Alopecurus japonicus (dose 15 g a.i./ha) is recorded as 5 (Level 5: growth control rate is above 85%). Besides, the “weeding effect in post-emergence stage, Beckmannia syzigachne (activity level)” value with Beckmannia syzigachne (dose 15 g a.i./ha) is 5 (Level 5: growth control rate is above 85%).

In the case of `CCOC(=O)C1(C)CC(c2cc(-n3c(=O)n(C)c(=S)n(C)c3=O)c(F)cc2Cl)=NO1` (stereo not drawn) [Control compound A, reference compound], the “weeding effect … Rorippa indica (activity level)” value with Rorippa indica (dose 15 g a.i./ha) was 2 (Level 2: growth control rate is greater than or equal to 20% and less than 40%). Moreover, the “weeding effect in post-emergence stage, Conyza japonica (activity level)” value with Conyza japonica (dose 15 g a.i./ha) was 2 (Level 2: growth control rate is greater than or equal to 20% and less than 40%). The “weeding effect in post-emergence stage, Alopecurus japonicus (activity level)” value in the test with Alopecurus japonicus (dose 15 g a.i./ha) is 3 (Level 3: growth control rate is greater than or equal to 40% and less than 60%). The “weeding effect in post-emergence stage, Beckmannia syzigachne (activity level)” value with Beckmannia syzigachne (dose 15 g a.i./ha) was 2 (Level 2: growth control rate is greater than or equal to 20% and less than 40%).

For the molecule `CCOC(=O)C1(C)CC(c2cc(-n3c(=O)cc(C(F)(F)F)n(C)c3=O)c(F)cc2Cl)=NO1` (stereo not drawn) [Control compound B, reference compound], the “weeding effect … Rorippa indica (activity level)” value is 2 (Level 2: growth control rate is greater than or equal to 20% and less than 40%) with Rorippa indica (dose 7.5 g a.i./ha); 3 (Level 3: growth control rate is greater than or equal to 40% and less than 60%) with Rorippa indica (dose 15 g a.i./ha). For the same molecule, the “weeding effect in post-emergence stage, Conyza japonica (activity level)” value in the test with Conyza japonica (dose 7.5 g a.i./ha) was 3 (Level 3: growth control rate is greater than or equal to 40% and less than 60%); with Conyza japonica (dose 15 g a.i./ha) it was 4 (Level 4: growth control rate is greater than or equal to 60% and less than 85%). In addition, the “weeding effect in post-emergence stage, Alopecurus japonicus (activity level)” value was 3 (Level 3: growth control rate is greater than or equal to 40% and less than 60%) with Alopecurus japonicus (dose 7.5 g a.i./ha); 4 (Level 4: growth control rate is greater than or equal to 60% and less than 85%) in the test with Alopecurus japonicus (dose 15 g a.i./ha). For the same molecule, the “weeding effect in post-emergence stage, Beckmannia syzigachne (activity level)” value in the test on Beckmannia syzigachne (dose 7.5 g a.i./ha) was 2 (Level 2: growth control rate is greater than or equal to 20% and less than 40%); with Beckmannia syzigachne (dose 15 g a.i./ha), 3 (Level 3: growth control rate is greater than or equal to 40% and less than 60%).

For `CCOC(=O)c1cnn(C)c1S(=O)(=O)NC(=O)Nc1nc(OC)cc(OC)n1` [Pyrazosulfuron-ethyl], in test [1], the “response of the weeds to the common doses” value is on record as “resistant”.

Turning to `CCOC(=O)C1(C)CC(c2cc(-n3c(=O)cc(C(F)(F)F)n(C)c3=O)c(F)cc2Cl)=NO1` (stereo not drawn) [drawing 745, reference compound], the “weeding effect … Rorippa indica (activity level)” value in the test on Rorippa indica (dose 15 g a.i./ha) is 1 (Level 1: growth control rate is greater than or equal to 5% and less than 20%). The “weeding effect in post-emergence stage, Conyza japonica (activity level)” value in the test on Conyza japonica (dose 15 g a.i./ha) was 1 (Level 1: growth control rate is greater than or equal to 5% and less than 20%). Besides, in the test on Alopecurus japonicus (dose 15 g a.i./ha), the “weeding effect in post-emergence stage, Alopecurus japonicus (activity level)” value was 2 (Level 2: growth control rate is greater than or equal to 20% and less than 40%). Also, the “weeding effect in post-emergence stage, Beckmannia syzigachne (activity level)” value in the test with Beckmannia syzigachne (dose 15 g a.i./ha) was 1 (Level 1: growth control rate is greater than or equal to 5% and less than 20%).

For `CCOC(=O)C1(C)CC(c2cc(-n3c(=O)n(C)c(=S)n(C)c3=O)c(F)cc2Cl)=NO1` (stereo not drawn) [drawing 746, reference compound], the “weeding effect … Rorippa indica (activity level)” value in the test on Rorippa indica (dose 15 g a.i./ha) was 1 (Level 1: growth control rate is greater than or equal to 5% and less than 20%). The “weeding effect in post-emergence stage, Conyza japonica (activity level)” value in the test on Conyza japonica (dose 15 g a.i./ha) is 1 (Level 1: growth control rate is greater than or equal to 5% and less than 20%). In the test with Alopecurus japonicus (dose 15 g a.i./ha), the “weeding effect in post-emergence stage, Alopecurus japonicus (activity level)” value is 2 (Level 2: growth control rate is greater than or equal to 20% and less than 40%). For the same molecule, the “weeding effect in post-emergence stage, Beckmannia syzigachne (activity level)” value in the test on Beckmannia syzigachne (dose 15 g a.i./ha) was 1 (Level 1: growth control rate is greater than or equal to 5% and less than 20%).
